Reference: patent US9260429B2, “Pyrido[3,4-B]indoles and methods of use” (Medivation Technologies, Inc., priority 2008, dated 2016)
Where two headings read alike, the source gives them in different places.

Tests used:
[1] = target: T1, human recombinant adrenergic α2A receptor (Homo sapiens, UniProt P08913); assay: Adrenergic α2A radioligand binding ([3H]MK-912)
T1 construct: expressed in transfected cells; host or cells: insect Sf9 cells
T1 sequence (P08913 1-465): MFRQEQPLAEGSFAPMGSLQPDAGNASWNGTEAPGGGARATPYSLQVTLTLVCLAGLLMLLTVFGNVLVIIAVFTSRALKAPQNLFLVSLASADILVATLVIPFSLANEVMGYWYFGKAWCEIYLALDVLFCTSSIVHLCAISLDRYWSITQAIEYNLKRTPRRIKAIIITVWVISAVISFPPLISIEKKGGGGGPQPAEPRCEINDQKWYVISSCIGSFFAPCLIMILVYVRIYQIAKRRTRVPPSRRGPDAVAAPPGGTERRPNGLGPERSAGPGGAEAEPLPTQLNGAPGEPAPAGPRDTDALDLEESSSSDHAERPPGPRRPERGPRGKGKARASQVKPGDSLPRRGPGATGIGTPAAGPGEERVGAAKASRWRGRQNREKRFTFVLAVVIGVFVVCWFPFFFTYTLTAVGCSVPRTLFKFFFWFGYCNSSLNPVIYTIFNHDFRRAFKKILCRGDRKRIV
Method: To evaluate in radioligand binding assays the activity of compounds of the invention, human recombinant adrenergic α2A receptor expressed in insect Sf9 cells (Uhlen S et al. J Pharmacol Exp Ther. 271:1558, 1994) in a modified Tris-HCl buffer (50 mM Tris-HCl, pH 7.4, 12.5 mM MgCl2, 2 mM EDTA) was used. Compounds of invention were incubated with 1 nM [^3H]MK-912 for 60 minutes at 25° C. MK912 is (2S-trans)-1,3,4,5′,6,6′,7,12b-octahydro-1′,3′-dimethyl-spiro[2H-benzofuro[2,3-a]quinolizine-2,4′(1′H)-pyrimidin]-2′(3′H)-one hydrochloride Non-specific binding was estimated in the presence of 10 μM WB-4101 (2-(2,6-Dimethoxyphenoxyethyl)aminomethyl-1,4-benzodioxane hydrochloride). Receptor proteins were filtered and washed, the filters were then counted to determine [^3H]MK-912 specifically bound. Compounds were screened at 1 μM or lower, using 1% DMSO as vehicle. Biochemical assay results are presented as the percent inhibition of specific binding in Table 4.

[2] = target: T2, human recombinant adrenergic α1D receptor (Homo sapiens, UniProt P25100); assay: Adrenergic α1D radioligand binding ([3H]Prozosin)
T2 construct: expressed in transfected cells; host or cells: HEK-293 cells
T2 sequence (P25100 1-572): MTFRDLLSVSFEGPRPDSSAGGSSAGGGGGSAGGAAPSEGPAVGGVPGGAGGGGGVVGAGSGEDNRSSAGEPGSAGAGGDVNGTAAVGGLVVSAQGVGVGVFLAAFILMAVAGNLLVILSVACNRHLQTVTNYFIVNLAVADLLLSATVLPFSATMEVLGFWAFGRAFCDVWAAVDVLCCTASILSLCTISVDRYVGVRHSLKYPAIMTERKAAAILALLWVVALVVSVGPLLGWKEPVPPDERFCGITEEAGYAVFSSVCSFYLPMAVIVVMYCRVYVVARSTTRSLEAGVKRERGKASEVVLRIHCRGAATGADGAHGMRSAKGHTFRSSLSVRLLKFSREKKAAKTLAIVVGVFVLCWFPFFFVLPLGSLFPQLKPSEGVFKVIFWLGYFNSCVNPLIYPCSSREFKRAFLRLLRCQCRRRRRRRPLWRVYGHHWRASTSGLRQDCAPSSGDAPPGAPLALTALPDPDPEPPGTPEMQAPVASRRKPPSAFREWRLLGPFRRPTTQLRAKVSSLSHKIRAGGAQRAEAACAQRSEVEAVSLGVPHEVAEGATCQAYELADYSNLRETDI
Method: To evaluate in radioligand binding assays the activity of compounds of the invention, human recombinant adrenergic a1D receptor expressed in human embryonic kidney (HEK-293) cells (Kenny, B. A. et al. Br. J. Pharmacol. 115(6):981, 1995) in a 50 mM Tris-HCl buffer, pH 7.4, was used. Compounds of invention were incubated with 0.6 nM [^3H]Prozosin for 60 minutes at 25° C. Non-specific binding was estimated in the presence of 10 μM phentolamine. Receptor proteins were filtered and washed, the filters were then counted to determine [^3H]Prozosin specifically bound. Compounds were screened at 1 μM or lower, using 1% DMSO as vehicle. Biochemical assay results are presented as the percent inhibition of specific binding in Table 4. Adrenergic a2A

[3] = target: T3, human recombinant adrenergic α2B receptor (Homo sapiens, UniProt P18089); assay: Adrenergic α2B radioligand binding ([3H]Rauwolscine)
T3 construct: expressed in transfected cells; host or cells: CHO-K1 cells
T3 sequence (P18089 1-450): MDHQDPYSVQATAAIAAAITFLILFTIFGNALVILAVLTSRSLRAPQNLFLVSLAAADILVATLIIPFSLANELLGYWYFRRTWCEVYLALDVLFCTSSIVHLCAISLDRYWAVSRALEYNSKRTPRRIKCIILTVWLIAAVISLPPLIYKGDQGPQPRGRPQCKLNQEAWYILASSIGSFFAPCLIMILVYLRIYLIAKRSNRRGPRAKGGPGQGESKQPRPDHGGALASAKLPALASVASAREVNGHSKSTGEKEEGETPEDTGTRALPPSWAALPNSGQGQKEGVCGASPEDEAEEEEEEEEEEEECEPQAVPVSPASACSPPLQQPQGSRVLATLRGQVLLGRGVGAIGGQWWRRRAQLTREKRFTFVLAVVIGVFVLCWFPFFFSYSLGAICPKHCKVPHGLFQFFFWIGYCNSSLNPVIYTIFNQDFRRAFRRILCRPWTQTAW
Method: To evaluate in radioligand binding assays the activity of compounds of the invention, human recombinant adrenergic α2B receptor expressed in Chinese hamster ovary (CHO-K1) cells (Uhlen S et al. Eur J. Pharmacol. 343(1):93, 1998) in a modified Tris-HCl buffer (50 mM Tris-HCl, pH 7.4, 12.5 mM MgCl2, 1 mM EDTA, 0.2% BSA) was used. Compounds of the invention were incubated with 2.5 nM [^3H]Rauwolscine for 60 minutes at 25° C. Non-specific binding was estimated in the presence of 10 μM Prozosin. Receptor proteins were filtered and washed, the filters were then counted to determine [^3H]Rauwolscine specifically bound. Compounds were screened at 1 μM or lower, using 1% DMSO as vehicle. Biochemical assay results are presented as the percent inhibition of specific binding in Table 4.

[4] = 1 h, read-out: Percent Inhibition of ligand binding Adrenergic (1 μM ligand conc.) α2A
[5] = 1 h, read-out: Percent Inhibition of ligand binding Adrenergic (1 μM ligand conc.) α1D
[6] = 1 h, read-out: Percent Inhibition of ligand binding Adrenergic (1 μM ligand conc.) α2B
[7] = compound concentration 1 μM, read-out: Percentage inhibition of ligand binding to Adrenergic α2A receptor
[8] = compound concentration 1 μM, read-out: Percentage inhibition of ligand binding to Adrenergic α1D receptor
[9] = compound concentration 1 μM, read-out: Percentage inhibition of ligand binding to Adrenergic α2B receptor

SMILES	inhibition at 1 µM [1, 4] [%]	inhibition at 1 µM [2, 5] [%]	inhibition at 1 µM [3, 6] [%]	inhibition at 1 µM [1, 7] [%]	inhibition at 1 µM [2, 8] [%]	inhibition at 1 µM [3, 9] [%]
Cc1ccc2c(c1)c1c(n2CC(=O)O)CN(C)CC1 [Compound 53, 2-(1,2,3,4-tetrahydro-2,6-dimethylpyrido[3,4-b]indol-9-yl)acetic acid]	5	6	6			
COC(=O)Cn1c2c(c3cc(Cl)ccc31)CCN(C)C2 [Compound 54, methyl 2-(6-chloro-2-methyl-3,4-dihydro-1H-pyrido[3,4-b]indol-9(2H)-yl)acetate]	4	11	18			
CN1CCc2c(n(CC(=O)N3CCNCC3)c3ccc(Cl)cc23)C1 [Compound 55, 2-(6-chloro-2-methyl-3,4-dihydro-1H-pyrido[3,4-b]indol-9(2H)-yl)-1-(piperazin-1-yl)ethanone]	10	10	-21			
Cc1ccc(CCCn2c3c(c4cc(Cl)ccc42)CCN(C)C3)cn1 [Compound 56, 6-chloro-2-methyl-9-(3-(6-methylpyridin-3-yl)propyl)-2,3,4,9-tetrahydro-1H-pyrido[3,4-b]indole]	7	16	-10			
Cc1ccc2c(c1)c1c(n2CC(=O)N2CCCCC2)CN(C)CC1 [Compound 57, 2-(2,6-dimethyl-3,4-dihydro-1H-pyrido[3,4-b]indol-9(2H)-yl)-1-(piperidin-1-yl)ethanone]	4	77	29			
CN1CCc2c(n(CC(=O)N3CCCCC3)c3ccc(Cl)cc23)C1 [Compound 58, 2-(6-chloro-2-methyl-3,4-dihydro-1H-pyrido[3,4-b]indol-9(2H)-yl)-1-(piperidin-1-yl)ethanone]	-12	19	-15			
CN1CCc2c(n(CC(O)c3ccccc3F)c3ccc(Cl)cc23)C1 (stereo not drawn) [Compound 59, 2-(6-chloro-2-methyl-3,4-dihydro-1H-pyrido[3,4-b]indol-9(2H)-yl)-1-(2-fluorophenyl)ethanol]	91	30	97			
Cc1ccc2c(c1)c1c(n2CC(O)c2ccccc2F)CN(C)CC1 (stereo not drawn) [Compound 60, 2-(2,6-dimethyl-3,4-dihydro-1H-pyrido[3,4-b]indol-9(2H)-yl)-1-(2-fluorophenyl)ethanol]	79	29	-5			
Cc1ccc2c(c1)c1c(n2CC(C)(O)c2ccc(F)cc2)CN(C)CC1 (stereo not drawn) [Compound 61, 1-(2,6-dimethyl-3,4-dihydro-1H-pyrido[3,4-b]indol-9(2H)-yl)-2-(4-fluorophenyl)propan-2-ol]	83	49	101			
CN1CCc2c(n(CC(C)(O)c3ccc(F)cc3)c3ccc(Cl)cc23)C1 (stereo not drawn) [Compound 62, 1-(6-chloro-2-methyl-3,4-dihydro-1H-pyrido[3,4-b]indol-9(2H)-yl)-2-(4-fluorophenyl)propan-2-ol]	90	44	102			
COc1ccc(C(O)Cn2c3c(c4cc(C)ccc42)CCN(C)C3)cc1OC (stereo not drawn) [Compound 66]	55	74	74			
Cc1ccc2c(c1)c1c(n2CC(O)c2ccccc2)CN(C)CC1 (stereo not drawn) [Compound 67]	85	85	106			
COc1ccc(C(O)Cn2c3c(c4cc(Cl)ccc42)CCN(C)C3)cc1OC (stereo not drawn) [Compound 70]	81	44	77			
CN1CCc2c(n(CC(O)c3ccccc3)c3ccc(Cl)cc23)C1 (stereo not drawn) [Compound 71]	88	58	95			
Cc1ccc(C(O)Cn2c3c(c4cc(C)ccc42)CCN(C)C3)cc1 (stereo not drawn) [Compound 72]	93	86	105			
CCC1c2c(c3cc(Cl)ccc3n2CCc2ccc(F)cc2)CCN1C (stereo not drawn) [Compound 78]	93	42	102			
CCC1c2c(c3cc(Cl)ccc3n2CC(C)(O)c2ccc(F)cc2)CCN1C (stereo not drawn) [Compound 79]	92	17	89			
Cc1ccc(CCn2c3c(c4cc(Cl)ccc42)CCN(C)C3C)cn1 (stereo not drawn) [Compound 80]	82	89	100			
CC1c2c(c3cc(Cl)ccc3n2CCc2ccc(F)cc2)CCN1C (stereo not drawn) [Compound 81]	92	64	102			
C/C(=C\n1c2c(c3cc(Cl)ccc31)CCN(C)C2)c1ccc(F)cc1 [Compound 90, (E)-6-chloro-9-(2-(4-fluorophenyl)prop-1-enyl)-2-methyl-2,3,4,9-tetrahydro-1H-pyrido[3,4-b]indole]	88	62	97	88	62	97
C/C(=C\n1c2c(c3cc(C)ccc31)CCN(C)C2)c1ccc(F)cc1 [Compound 91, (E)-9-(2-(4-fluorophenyl)prop-1-enyl)-2,6-dimethyl-2,3,4,9-tetrahydro-1H-pyrido[3,4-b]indole]	95	73	94	95	73	94
